# Like-named read-outs stand apart in the source and are kept apart here.
# Experiments:
# Type in all cases: biochemical
# LATS1 = biological target: T1, LATS1 (Homo sapiens, UniProt O95835); test: RBC HotSpot kinase assay (33P-ATP, P81 filter-binding), LATS1; conditions: read-out: LATS1 IC50
# T1 sequence (O95835 1-1130): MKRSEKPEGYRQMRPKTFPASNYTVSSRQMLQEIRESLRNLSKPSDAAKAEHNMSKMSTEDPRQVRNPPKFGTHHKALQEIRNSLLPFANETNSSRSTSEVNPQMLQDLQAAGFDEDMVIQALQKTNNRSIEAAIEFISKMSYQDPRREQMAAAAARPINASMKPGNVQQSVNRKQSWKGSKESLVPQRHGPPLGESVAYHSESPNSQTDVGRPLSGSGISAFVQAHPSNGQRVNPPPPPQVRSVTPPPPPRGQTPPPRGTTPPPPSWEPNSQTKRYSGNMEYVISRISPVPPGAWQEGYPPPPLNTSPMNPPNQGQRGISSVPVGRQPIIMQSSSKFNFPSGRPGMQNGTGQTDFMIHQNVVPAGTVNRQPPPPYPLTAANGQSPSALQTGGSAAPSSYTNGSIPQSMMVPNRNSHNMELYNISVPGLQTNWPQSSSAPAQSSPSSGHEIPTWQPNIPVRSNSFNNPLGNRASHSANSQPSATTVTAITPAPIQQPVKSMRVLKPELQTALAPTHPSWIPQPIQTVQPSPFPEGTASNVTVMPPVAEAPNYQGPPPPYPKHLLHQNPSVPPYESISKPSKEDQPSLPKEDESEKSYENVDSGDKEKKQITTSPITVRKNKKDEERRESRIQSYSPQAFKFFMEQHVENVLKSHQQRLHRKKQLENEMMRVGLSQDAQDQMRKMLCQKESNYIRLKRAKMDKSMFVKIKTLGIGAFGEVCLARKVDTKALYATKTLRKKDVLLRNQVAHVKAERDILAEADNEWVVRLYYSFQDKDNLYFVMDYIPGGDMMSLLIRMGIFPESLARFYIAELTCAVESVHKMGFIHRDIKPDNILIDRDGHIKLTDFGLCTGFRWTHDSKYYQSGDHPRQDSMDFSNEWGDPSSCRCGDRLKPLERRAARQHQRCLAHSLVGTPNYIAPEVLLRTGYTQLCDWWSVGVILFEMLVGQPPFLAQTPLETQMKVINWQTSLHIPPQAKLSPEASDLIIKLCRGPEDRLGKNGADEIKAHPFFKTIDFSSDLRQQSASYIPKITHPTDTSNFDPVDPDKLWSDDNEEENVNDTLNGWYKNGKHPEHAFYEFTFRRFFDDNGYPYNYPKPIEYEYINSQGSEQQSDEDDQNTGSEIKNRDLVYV
# How it was run: (§1)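 Radiometric 33P-ATP kinase reaction in 20 mM Hepes pH 7.5, 10 mM MgCl2, 1 mM EGTA, 0.01% Brij35, 0.02 mg/ml BSA, 0.1 mM Na3VO4, 2 mM DTT, 1% DMSO. Compound preincubated with kinase and substrate 20 min, then 2 h at room temperature; P81 filter-binding read-out. IC50 (nM) from 10-point singlet curves.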
# LATS2 = biological target: T2, LATS2 (Homo sapiens, UniProt Q9NRM7); test: RBC HotSpot kinase assay (33P-ATP, P81 filter-binding), LATS2; conditions: read-out: LATS2 IC50
# T2 sequence (Q9NRM7 1-1088): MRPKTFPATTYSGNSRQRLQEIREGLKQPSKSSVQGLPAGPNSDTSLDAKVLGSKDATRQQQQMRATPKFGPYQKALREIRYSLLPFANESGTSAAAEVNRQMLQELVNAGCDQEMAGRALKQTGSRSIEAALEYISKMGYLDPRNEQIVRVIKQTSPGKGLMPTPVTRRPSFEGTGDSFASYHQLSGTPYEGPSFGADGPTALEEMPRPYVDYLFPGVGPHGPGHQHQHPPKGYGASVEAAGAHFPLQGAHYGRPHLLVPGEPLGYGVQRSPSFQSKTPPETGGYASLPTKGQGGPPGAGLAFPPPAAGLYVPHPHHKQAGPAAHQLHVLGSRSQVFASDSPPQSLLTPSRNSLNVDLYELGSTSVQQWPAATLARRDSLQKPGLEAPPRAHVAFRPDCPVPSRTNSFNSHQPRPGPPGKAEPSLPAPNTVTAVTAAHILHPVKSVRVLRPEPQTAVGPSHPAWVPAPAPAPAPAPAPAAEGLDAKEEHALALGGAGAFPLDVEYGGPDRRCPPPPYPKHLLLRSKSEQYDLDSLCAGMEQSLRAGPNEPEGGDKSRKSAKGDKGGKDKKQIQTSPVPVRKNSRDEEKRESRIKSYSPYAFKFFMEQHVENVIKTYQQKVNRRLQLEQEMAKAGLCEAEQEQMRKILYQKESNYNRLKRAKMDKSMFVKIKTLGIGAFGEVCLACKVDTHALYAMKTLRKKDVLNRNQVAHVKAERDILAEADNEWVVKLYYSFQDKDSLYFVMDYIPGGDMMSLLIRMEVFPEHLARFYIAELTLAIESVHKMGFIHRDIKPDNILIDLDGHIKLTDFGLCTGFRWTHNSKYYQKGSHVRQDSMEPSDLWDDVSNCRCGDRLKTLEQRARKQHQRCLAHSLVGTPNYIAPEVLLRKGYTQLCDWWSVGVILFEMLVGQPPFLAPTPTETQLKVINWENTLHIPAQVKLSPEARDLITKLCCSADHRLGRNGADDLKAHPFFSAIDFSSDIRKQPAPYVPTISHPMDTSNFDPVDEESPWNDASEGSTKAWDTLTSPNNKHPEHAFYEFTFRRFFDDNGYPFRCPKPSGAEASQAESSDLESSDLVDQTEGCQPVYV
# How it was run: as §1
# AKT = AKT (Homo sapiens, UniProt P31749); test: RBC HotSpot kinase assay (33P-ATP, P81 filter-binding), AKT; conditions: read-out: AKT IC50
# Sequence of AKT (P31749 whole entry): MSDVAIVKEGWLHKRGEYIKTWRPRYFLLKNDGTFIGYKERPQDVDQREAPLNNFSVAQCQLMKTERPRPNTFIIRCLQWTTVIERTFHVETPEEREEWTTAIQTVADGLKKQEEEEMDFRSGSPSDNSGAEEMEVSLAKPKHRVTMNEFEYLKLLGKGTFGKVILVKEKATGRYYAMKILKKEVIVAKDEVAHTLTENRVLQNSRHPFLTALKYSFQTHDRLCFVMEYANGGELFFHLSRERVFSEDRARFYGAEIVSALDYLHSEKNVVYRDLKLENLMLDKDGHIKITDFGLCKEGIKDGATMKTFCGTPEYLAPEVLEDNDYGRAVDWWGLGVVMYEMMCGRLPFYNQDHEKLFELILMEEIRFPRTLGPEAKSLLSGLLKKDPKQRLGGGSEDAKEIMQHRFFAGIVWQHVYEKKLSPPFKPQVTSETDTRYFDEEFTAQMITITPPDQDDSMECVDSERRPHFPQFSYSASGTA
# How it was run: as §1
# [1] = Table 28, biochemical kinase assay
# [2] = Table 32, biochemical kinase assay
Structure (SMILES),IC50 (LATS1; [1]) [nM],IC50 (LATS2; [1]) [nM],IC50 (AKT; [1]) [nM],IC50 (LATS1; [2]) [nM],IC50 (LATS2; [2]) [nM],IC50 (AKT; [2]) [nM]
"OC1(c2ccc(-c3ccnc4[nH]cc(-c5cccnc5)c34)cc2)CCNCC1 [Compound 126, 4-(4-(3-(pyridin-3-yl)-1H-pyrrolo[2,3-b]pyridin-4-yl)phenyl)piperidin-4-ol]",9.1,32,245,–,–,–
"Fc1c[nH]c2nccc(-c3ccc(C4(c5nnco5)CCNCC4)cc3)c12 [Compound 191, 2-(4-(4-(3-fluoro-1H-pyrrolo[2,3-b]pyridin-4-yl)phenyl)piperidin-4-yl)-1,3,4-oxadiazole]",57,43,200,–,–,–
"c1ccc(-c2cc(-c3ccnc4[nH]ccc34)ccc2C2CCNCC2)cc1 [Compound 153, 4-(6-(piperidin-4-yl)-[1,1′-biphenyl]-3-yl)-1H-pyrrolo[2,3-b]pyridine]",15.2,20.4,378,–,–,–
"NCC(=O)NCC(O)(c1ccc(Cl)cc1)c1ccc(-c2ccnc3[nH]cc(F)c23)cc1 (stereo not drawn) [Compound 1029, 2-amino-N-(2-(4-chlorophenyl)-2-(4-(3-fluoro-1H-pyrrolo[2,3-b]pyridin-4-yl)phenyl)-2-hydroxyethyl)acetamide]",–,–,–,2.6,1.3,0.7
"Cc1cc(-c2ccnc3[nH]cc(F)c23)ncc1[C@@]1(O)[C@H](C)CN(C)C[C@@H]1C [Compound 44, (3R,4s,5S)-4-(6-(3-fluoro-1H-pyrrolo[2,3-b]pyridin-4-yl)-4-methylpyridin-3-yl)-1,3,5-trimethylpiperidin-4-ol]",8.9,19.6,1610,–,–,–
"C[C@@H]1CN(C(=O)C(C)(C)N)C[C@H](C)C1(O)c1c(F)cc(-c2ccnc3[nH]cc(F)c23)cc1F (stereo partly drawn) [Compound 77, 2-amino-1-((3S,5R)-4-(2,6-difluoro-4-(3-fluoro-1H-pyrrolo[2,3-b]pyridin-4-yl)phenyl)-4-hydroxy-3,5-dimethylpiperidin-1-yl)-2-methylpropan-1-one]",24.6,19.3,885,–,–,–
"CN(C)CC(=O)NCC(O)(c1ccc(Cl)cc1)c1ccc(-c2ccnc3[nH]ccc23)cc1 (stereo not drawn) [Compound 1019, N-(2-(4-(1H-pyrrolo[2,3-b]pyridin-4-yl)phenyl)-2-(4-chlorophenyl)-2-hydroxyethyl)-2-(dimethylamino) acetamide]",–,–,–,4,5.6,5.4
"Cc1cc(-c2ccnc3[nH]cc(F)c23)cc(F)c1[C@@]1(O)[C@H](C)CN(C(=O)[C@@H]2CC(F)(F)CN2)C[C@@H]1C [Compound 64, ((S)-4,4-difluoropyrrolidin-2-yl)((3S,4R,5R)-4-(2-fluoro-4-(3-fluoro-1H-pyrrolo[2,3-b]pyridin-4-yl)-6-methylphenyl)-4-hydroxy-3,5-dimethylpiperidin-1-yl)methanone]",6.7,3.6,3140,–,–,–
"COc1cc(C2CCNCC2)ccc1-c1ccnc2[nH]ccc12 [Compound 179, 4-(2-methoxy-4-(piperidin-4-yl)phenyl)-1H-pyrrolo[2,3-b]pyridine]",1080,1290,5660,–,–,–
"c1ccc(CNCc2ccc(-c3ccnc4[nH]ccc34)cc2)cc1 [Compound 274, N-(4-(1H-pyrrolo[2,3-b]pyridin-4-yl)benzyl)-1-phenylmethanamine]",36.6,60.5,2430,–,–,–
"Fc1c[nH]c2nccc(-c3ccc(C4(C(F)(F)F)CCNCC4)cc3)c12 [Compound 189, 3-fluoro-4-(4-(4-(trifluoromethyl)piperidin-4-yl)phenyl)-1H-pyrrolo[2,3-b]pyridine]",11,14,18,–,–,–
"CN[C@H](C)C(=O)N1C[C@@H](C)[C@](O)(c2c(C)cc(-c3ccnc4[nH]cc(F)c34)cc2F)[C@@H](C)C1 [Compound 316, (R)-1-((3S,4S,5R)-4-(2-fluoro-4-(3-fluoro-1H-pyrrolo[2,3-b]pyridin-4-yl)-6-methylphenyl)-4-hydroxy-3,5-dimethylpiperidin-1-yl)-2-(methylamino) propan-1-one]",12,6.8,1370,–,–,–
"C[C@@H]1CN(C)C[C@H](C)[C@@]1(O)c1ccc(-c2ccnc3[nH]ccc23)nc1 [Compound 40, (3R,4s,5S)-4-(6-(1H-pyrrolo[2,3-b]pyridin-4-yl)pyridin-3-yl)-1,3,5-trimethylpiperidin-4-ol]",99,293,1540,–,–,–
"C[C@@H]1CN(C(=O)CN)C[C@H](C)C1(O)c1cnc(-c2ccnc3[nH]cc(F)c23)cc1F (stereo partly drawn) [Compound 87, 2-amino-1-((3S,5R)-4-(4-fluoro-6-(3-fluoro-1H-pyrrolo[2,3-b]pyridin-4-yl)pyridin-3-yl)-4-hydroxy-3,5-dimethylpiperidin-1-yl)ethan-1-one]",48,47.3,4010,–,–,–
"O=C(CP(=O)(O)O)NCC(O)(c1ccc(Cl)cc1)c1ccc(-c2ccnc3[nH]ccc23)cc1 (stereo not drawn) [Compound 1022, (2-((2-(4-(1H-pyrrolo[2,3-b]pyridin-4-yl)phenyl)-2-(4-chlorophenyl)-2-hydroxyethyl)amino)-2-oxoethyl) phosphonic acid]",–,–,–,9.6,12,3.1
"COc1ccccc1-c1c[nH]c2nccc(-c3ccc(CN)cc3)c12 [Compound 242, (4-(3-(2-methoxyphenyl)-1H-pyrrolo[2,3-b]pyridin-4-yl)phenyl) methanamine]",11,10,1320,–,–,–
"OC1(c2ccc(-c3ccnc4[nH]cc(Br)c34)cc2Cl)CNC1 [Compound 123, 3-(4-(3-bromo-1H-pyrrolo[2,3-b]pyridin-4-yl)-2-chlorophenyl)azetidin-3-ol]",12,7,158,–,–,–
"Cc1cc(-c2ccnc3[nH]cc(Cl)c23)cc(F)c1[C@@]1(O)[C@H](C)CN(C(=O)CN)C[C@@H]1C [Compound 317, 2-amino-1-((3S,4s,5R)-4-(4-(3-chloro-1H-pyrrolo[2,3-b]pyridin-4-yl)-2-fluoro-6-methylphenyl)-4-hydroxy-3,5-dimethylpiperidin-1-yl)ethan-1-one]",7.6,3.8,186,–,–,–

# Source: US20250361230A1, “LATS Inhibitors and Uses Thereof” (The USA, as Represented by the Secretary, Dept. of Heath …, priority 2022, published 2025)
